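Assay format: 96-well plates, 48-hour exposure. GI50: concentration for 50% inhibition of growth. Definition used: TGI = concentration required for complete inhibition of growth.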
Legend:
Assay in all cases: inhibition of tumour cell growth, NCI panel, 48 h
[1] = tested on: OVCAR-3 ovarian
[2] = tested on: NCI-H522 lung
[3] = tested on: HCC-2998 colon
[4] = tested on: HT29 colon
[5] = tested on: TK-10 renal
[6] = tested on: HCT-116 colon
[7] = tested on: HOP-62 NSCLC
[8] = tested on: SK-OV-3 ovarian
[9] = tested on: IGROV1 ovarian
[10] = tested on: MALME-3M melanoma

## Nc1ccc(-c2ccc(-c3nc4cc(Cl)c(Cl)cc4[nH]3)cc2)cc1
[1]
  GI50: 0.944 µM
[2]
  GI50: 1.03 µM
  TGI: > 80.9 µM
[3]
  GI50: 0.1 µM
  TGI: 0.426 µM
[4]
  GI50: 1.42 µM
  TGI: > 100 µM
[5]
  GI50: 1.63 µM
  TGI: 37.4 µM
[6]
  GI50: 0.503 µM
  TGI: > 100 µM
[7]
  GI50: 11.7 µM
  TGI: > 50.5 µM
[8]
  GI50: > 79.9 µM
  TGI: > 100 µM
[9]
  GI50: 12.1 µM
  TGI: > 100 µM
[10]
  GI50: 8.02 µM
  TGI: > 63.4 µM

## O=c1ccnc(SCc2ccc(Cl)cc2)[nH]1
[1]
  TGI: > 100 µM
[2]
  TGI: > 100 µM
[3]
  TGI: 66.2 µM
[4]
  TGI: > 100 µM
[5]
  TGI: > 100 µM
[6]
  TGI: > 100 µM
[7]
  TGI: > 100 µM
[8]
  TGI: > 100 µM
[9]
  TGI: > 100 µM
[10]
  TGI: > 100 µM

## C=C(CN(C)C)C(=O)c1ccc(Oc2ccccc2)cc1
[1]
  TGI: 13.2 µM
[2]
  TGI: 2.72 µM
[3]
  TGI: 32.3 µM
[4]
  TGI: 34.3 µM
[5]
  TGI: 14.5 µM
[6]
  TGI: 5.32 µM
[7]
  TGI: 43.7 µM
[8]
  TGI: 47.9 µM
[9]
  TGI: 30.8 µM
[10]
  TGI: 9.18 µM

## N#CSc1ccc(S(N)(=O)=O)cc1
[1]
  TGI: > 100 µM
[2]
  TGI: 26.5 µM
[3]
  TGI: > 100 µM
[4]
  TGI: > 100 µM
[5]
  TGI: > 100 µM
[6]
  TGI: > 100 µM
[7]
  TGI: > 100 µM
[8]
  TGI: > 100 µM
[9]
  TGI: > 100 µM
[10]
  TGI: > 100 µM

## CCCN1C(=O)CNC(=O)c2[nH]cnc21
[1]
  TGI: > 100 µM
[2]
  TGI: > 100 µM
[3]
  TGI: > 100 µM
[4]
  TGI: > 100 µM
[5]
  TGI: > 100 µM
[6]
  TGI: > 100 µM
[7]
  TGI: > 100 µM
[8]
  TGI: > 100 µM
[9]
  TGI: > 100 µM
[10]
  TGI: > 100 µM

## Nc1ncnc2c1ncn2C1OC(COC2C(CO)OC(OC(C(=O)O)C(O)C(OP(=O)(O)O)C(O)C(=O)O)C(O)C2O)C(O)C1O (centres undefined)
[1]
  TGI: > 100 µM
[2]
  TGI: > 100 µM
[3]
  TGI: > 100 µM
[4]
  TGI: > 100 µM
[5]
  TGI: > 100 µM
[6]
  TGI: > 100 µM
[7]
  TGI: > 100 µM
[8]
  TGI: > 100 µM
[9]
  TGI: > 100 µM
[10]
  TGI: > 100 µM

## CN1CCN(CC(=O)N2c3cccc4cccc(c34)N(C(=O)CN3CCN(C)CC3)C2c2cn(-c3ccccc3)nc2-c2cccc([N+](=O)[O-])c2)CC1
[1]
  GI50: 1.76 µM
  TGI: 3.4 µM
[2]
  GI50: 1.92 µM
  TGI: 4.13 µM
[3]
  GI50: 1.54 µM
  TGI: 3.01 µM
[4]
  GI50: 2.19 µM
  TGI: 5.59 µM
[5]
  GI50: 2.42 µM
  TGI: 5.61 µM
[6]
  GI50: 1.65 µM
  TGI: 3.1 µM
[7]
  GI50: 2.02 µM
  TGI: 5.52 µM
[8]
  GI50: 2.11 µM
  TGI: 4.6 µM
[9]
  GI50: 1.73 µM
  TGI: 3.71 µM
[10]
  GI50: 1.85 µM
  TGI: 3.49 µM

## Nc1nc(-c2ccccc2)cc(-c2ccc(Cl)cc2)c1-c1nc2ccccc2o1
[1]
  GI50: 15.7 µM
  TGI: 30.8 µM
[2]
  GI50: 13.5 µM
  TGI: 30.6 µM
[3]
  GI50: 10.3 µM
  TGI: 25.8 µM
[4]
  GI50: 12 µM
  TGI: 31.7 µM
[5]
  GI50: 11.3 µM
  TGI: 27.1 µM
[6]
  GI50: 7.41 µM
  TGI: 20.2 µM
[7]
  GI50: 22.4 µM
  TGI: 37.8 µM
[8]
  GI50: 15.9 µM
  TGI: 30.7 µM
[9]
  GI50: 12.9 µM
  TGI: 28.5 µM
[10]
  GI50: 19.2 µM
  TGI: 35.3 µM

## COc1ccc2nc(-c3cc4c([nH]c5ccccc54)c(-c4ccc(F)c(F)c4)n3)[nH]c2c1
[1]
  GI50: 1.94 µM
  TGI: 4.12 µM
[2]
  GI50: 10 µM
  TGI: 33.8 µM
[3]
  GI50: 8.96 µM
  TGI: 25.3 µM
[4]
  GI50: 3.74 µM
  TGI: 13 µM
[5]
  GI50: 4.29 µM
  TGI: 17.3 µM
[6]
  GI50: 2.05 µM
  TGI: 4.11 µM
[7]
  GI50: 10.9 µM
  TGI: 25.5 µM
[8]
  GI50: 17.1 µM
  TGI: 31.4 µM
[9]
  GI50: 4.62 µM
  TGI: 34.7 µM
[10]
  GI50: 16.3 µM
  TGI: 34.3 µM

## N#Cc1nn(-c2cc(=O)[nH]c3ccc(Br)cc23)c(N)c1C#N
[1]
  GI50: > 100 µM
  TGI: > 100 µM
[2]
  GI50: 22.7 µM
  TGI: 86.4 µM
[3]
  GI50: > 100 µM
  TGI: > 100 µM
[4]
  GI50: > 100 µM
  TGI: > 100 µM
[5]
  GI50: > 100 µM
  TGI: > 100 µM
[6]
  GI50: > 100 µM
  TGI: > 100 µM
[7]
  GI50: > 100 µM
  TGI: > 100 µM
[8]
  GI50: > 100 µM
  TGI: > 100 µM
[9]
  GI50: 37.9 µM
  TGI: > 100 µM
[10]
  GI50: > 100 µM
  TGI: > 100 µM

## Cc1c(CC/C(=N\Nc2ccc([N+](=O)[O-])cc2[N+](=O)[O-])c2ccccc2)c2ccccc2n1C
[1]
  TGI: > 100 µM
[2]
  TGI: > 100 µM
[3]
  TGI: > 100 µM
[4]
  TGI: > 100 µM
[5]
  TGI: > 100 µM
[6]
  TGI: > 100 µM
[7]
  TGI: > 100 µM
[8]
  TGI: > 100 µM
[9]
  TGI: > 100 µM
[10]
  TGI: > 100 µM

## Cn1sc2ccccc2c1=S
[1]
  TGI: 10.5 µM
[2]
  TGI: 9.36 µM
[3]
  TGI: 45.9 µM
[4]
  TGI: 23.3 µM
[5]
  TGI: 44.8 µM
[6]
  TGI: 13.3 µM
[7]
  TGI: 24.5 µM
[8]
  TGI: > 59.8 µM
[9]
  TGI: 31.7 µM
[10]
  TGI: 22.9 µM

## COc1cc(Nc2nc3cc(C(F)(F)F)ccc3nc2C)cc(OC)c1OC
[1]
  TGI: 30.9 µM
[2]
  TGI: 25 µM
[3]
  TGI: 12.6 µM
[4]
  TGI: 13 µM
[5]
  TGI: 23.3 µM
[6]
  TGI: 21.1 µM
[7]
  TGI: 30.6 µM
[8]
  TGI: 30.5 µM
[9]
  TGI: 32 µM
[10]
  TGI: 26.6 µM

## CCOCCOC[C@H]1CCCN(c2ccnc3sc(C(N)=O)c(N)c23)C1
[1]
  GI50: 23.6 µM
  TGI: > 100 µM
[2]
  GI50: 10.3 µM
  TGI: > 100 µM
[3]
  GI50: > 100 µM
  TGI: > 100 µM
[4]
  GI50: > 100 µM
  TGI: > 100 µM
[5]
  GI50: > 100 µM
  TGI: > 100 µM
[6]
  GI50: 14.4 µM
  TGI: > 100 µM
[7]
  GI50: > 100 µM
  TGI: > 100 µM
[8]
  GI50: 40.3 µM
  TGI: > 100 µM
[9]
  GI50: 35 µM
  TGI: > 100 µM
[10]
  GI50: 86.6 µM
  TGI: > 100 µM

## O=C(NCCCCCCNC(=O)OCc1ccc2c(Cl)cc(Cl)c(O)c2n1)OCc1ccc2c(Cl)cc(Cl)c(O)c2n1
[1]
  GI50: 0.327 µM
  TGI: 1.24 µM
[2]
  GI50: 0.46 µM
  TGI: 2.1 µM
[3]
  GI50: 1.68 µM
  TGI: 3.22 µM
[4]
  GI50: 0.565 µM
  TGI: 2.23 µM
[5]
  GI50: 1.18 µM
  TGI: 2.45 µM
[6]
  GI50: 0.209 µM
  TGI: 0.693 µM
[7]
  GI50: 1.7 µM
  TGI: 4.22 µM
[8]
  GI50: 5.5 µM
  TGI: 17.9 µM
[9]
  GI50: 0.57 µM
  TGI: 1.78 µM
[10]
  GI50: 1.42 µM
  TGI: 2.77 µM

## C=C(C)[C@@H]1CC[C@]2(C(N)=O)CC[C@]3(C)[C@H](CC[C@@H]4[C@@]5(C)C/C(=C/c6cccnc6)[C@H](O)C(C)(C)[C@@H]5CC[C@]43C)[C@@H]12
[1]
  GI50: 5.02 µM
  TGI: > 100 µM
[2]
  GI50: 3.93 µM
  TGI: > 100 µM
[3]
  GI50: 4.66 µM
  TGI: > 100 µM
[4]
  GI50: 3.68 µM
  TGI: > 100 µM
[5]
  GI50: 16.3 µM
  TGI: > 100 µM
[6]
  GI50: 2.22 µM
  TGI: > 100 µM
[7]
  GI50: 9.52 µM
  TGI: > 100 µM
[8]
  GI50: 5.26 µM
  TGI: > 100 µM
[9]
  GI50: 3.85 µM
  TGI: > 100 µM
[10]
  GI50: 4.91 µM
  TGI: > 100 µM

## O=C(Cc1ccccc1)NS(=O)(=O)c1ccccc1
[1]
  TGI: > 100 µM
[2]
  TGI: > 100 µM
[3]
  TGI: > 100 µM
[4]
  TGI: > 100 µM
[5]
  TGI: > 100 µM
[6]
  TGI: > 100 µM
[7]
  TGI: > 100 µM
[8]
  TGI: > 100 µM
[9]
  TGI: > 100 µM
[10]
  TGI: > 100 µM
